According to patent US11666619B2, “Composition for treating atopic dermatitis including herbal medicine mixed extract” (University—Industry Cooperation Group of Kyung Hee …, priority 2016, dated 2023):

How the values were obtained:
BALB/c mouse = assay: DNCB-induced AD-like skin lesions in BALB/c mouse: clinical signs, skin thickness, spleen weight, body weight; format: in vivo; conditions: DNCB-treated BALB/c mice
Description: To examine effects of KAJD on atopic dermatitis (AD), DNCB (2,4-dinitrochlorobenzene) was applied to the skin of a BALB/c mouse to induce AD-like symptoms. In many studies regarding atopic dermatitis, models in which atopy-like dermatitis was induced using chemical antigens such as DNCB, 2,4-dinitrofluorobenzene, 2,4,6-trinitrothlorobenzene, etc. are used ([…]. et al, Immunology, 1995, 86, 545-550). In detail, 6-week-old BALB/c mice (20±2 g) were used, which were purchased from Orient Inc. (Seongnam, Korea). Mice were randomly divided into control groups or experimental groups (no treatment, DNCB, DNCB+tacrolimus, DNCB+KAJD), each group including five mice. All mice were raised under a pathogen-free environment with free access to sterile distilled water and solid feed. All mouse experiments were approved by the Experimental Animal Ethics Committee of Kyung Hee University (Approval Number: KHUASP (SE)-14-014). To induce AD-like skin lesions, the dorsal skin of the mouse was shaved, and 100 μL of 2% DNCB was applied thereto using a patch of 1 cm×1 cm twice a week. KAJD or tacrolimus, which is an existing therapeutic agent for AD, was periodically applied to the DNCB-applied skin for 2 weeks. At 28 days, all mice were sacrificed by CO2 inhalation. To examine changes in the skin of the BALB/c mouse by KAJD, clinical signs were observed once a week for 4 weeks. Severities of AD-like lesions in the dorsal skin, which are indicated by erythema/bleeding, edema, exfoliation/dryness, and excoriation/erosion, were scored according to a scale of 0 to 3 (0: absent, 1: mild, 2: moderate, 3: severe). Individual scores were added, and clinical skin scores were defined according to a scale of 0 to 12.

white blood cells (WBCs) = assay: Number of white blood cells in blood of DNCB-treated mice (hematology analyzer); format: in vivo, mouse; conditions: FIG. 5
Method: High levels of white blood cells (WBCs) are observed in most atopic dermatitis patients. Therefore, to examine therapeutic effects of KAJD on atopic dermatitis, the number of WBCs in the blood of mice was analyzed after treatment with KAJD. In detail, whole blood samples were collected from the heart of a mouse, and stored in a Vacutainer™ tube containing EDTA (BD Science, NJ, USA). The number of WBCs, lymphocytes, monocytes, eosinophils, basophils, or neutrophils was analyzed using a HEMAVET 950 hematology analyzer (Drew Scientific, Inc., Oxford, USA).

[1] = tested on: serum IgE and inflammatory cytokines; assay: Serum IgE and inflammatory cytokines in DNCB-treated mice (sandwich ELISA); format: in vivo, mouse; conditions: FIG. 6
Method: One of the features of AD is high expression levels of blood IgE and inflammatory cytokines. Therefore, to analyze a mechanism of anti-inflammatory activity of KAJD, levels of blood IgE and inflammatory cytokines in DNCB-treated mice were analyzed. In detail, expression levels were analyzed by sandwich ELISA using a BD PharMingen mouse or human ELISA set (Pharmingen, San Diego, Calif., USA). A plate was coated with a capture antibody contained in an ELISA coating buffer (Sigma, St. Louis, Mo., USA), and stored at 4° C. for one day. The plate was washed with 0.05% PBS-Tween 20, and subsequently, blocked with 10% FBS-containing PBS at 20° C. for 1 hour. A standard antigen or sample serially diluted with a dilution buffer (10% FBS-containing PBS) was put in the plate, followed by incubation at 20° C. for 1 hour. Thereafter, biotin-conjugated anti-mouse IgE and SAv-HRP (streptavidin-horseradish peroxidase conjugate) was added to the plate, followed by incubation at 20° C. for 1 hour. Lastly, a TMB (tetramethylbenzidine) substrate solution was added to the plate, and incubated under dark conditions for 15 minutes, and then the reaction was terminated with a 2 N H2SO4 solution. Optical density was measured using an ELISA reader (Versa Max, Molecular Devices, CA, USA) at 450 nm.

C=CC[C@@H]1/C=C(\C)C[C@H](C)C[C@H](OC)[C@H]2O[C@@](O)(C(=O)C(=O)N3CCCC[C@H]3C(=O)O[C@H](/C(C)=C/[C@@H]3CC[C@@H](O)[C@H](OC)C3)[C@H](C)[C@@H](O)CC1=O)[C@H](C)C[C@@H]2OC [tacrolimus]
scleroderma (thickness of the dorsal skin) (BALB/c mouse; FIG. 2C): remarkably decrease | spleen weight (BALB/c mouse; FIG. 2D): remarkably decrease | severe symptoms of the skin (erythema/bleeding, edema, exfoliation/dryness, excoriation/erosion) (BALB/c mouse; topical application, FIG. 2A): remarkably reduce severe symptoms of the skin | clinical score (severity score of AD-induced skin lesions) (BALB/c mouse; scale of 0 to 12, applied to DNCB-applied skin for 2 weeks, FIG. 2B): 3.29±0.76 | number of WBC subtypes including lymphocytes, monocytes, eosinophils, basophils, and neutrophils (white blood cells (WBCs)): decrease the number of WBC subtypes | number of white blood cells (white blood cells (WBCs)): considerably decrease | serum IgE [1]: considerably inhibit | serum inflammatory cytokines (IL-6, IL-10, IL-12) [1]: considerably inhibit
